Source: patent US20250388605A1, “HETEROBIFUNCTIONAL COMPOUNDS AND METHODS OF TREATING DISEASE” (Halda Therapeutics OpCo, Inc., priority 2022, published 2025)

Legend:
[1] = tested on: T-Rex 293 cell line SC3 cells having increased expression of androgen receptor protein due to exposure to doxycycline; assay: Cellular growth inhibition, T-Rex 293 SC3 cells with doxycycline (increased androgen receptor expression), CellTiter-Glo; assay type: cell-based; settings: T-Rex 293 SC3 cells with 10 ng/mL doxycycline (increased androgen receptor expression), 72 hours, CellTiter-Glo 2.0
Method in brief: (§1)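 Doxycycline (10 ng/mL) was either included or omitted to toggle wild-type androgen receptor expression in SC3 cells, a T-Rex 293 clone, grown in stripped-serum, phenol red-free medium. After 72 hours with compound, viable cells were quantified by CellTiter-Glo 2.0.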

[2] = tested on: T-Rex 293 cell line SC3 cells lacking increased expression of androgen receptor protein; assay: Cellular growth inhibition, T-Rex 293 SC3 cells without doxycycline (no increased androgen receptor expression), CellTiter-Glo; assay type: cell-based; settings: T-Rex 293 SC3 cells not exposed to doxycycline (no increased androgen receptor expression), 72 hours
Method in brief: as §1

[3] = tested on: VCaP cells; assay: Cellular growth inhibition assay for VCaP cells, CellTiter-Glo; assay type: cell-based, human; settings: 72 hours
Method in brief: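 GI50 values come from four-parameter curve fits of luminescence data normalized to a zero baseline. Compound, in medium with 0.5% DMSO, was added one day after plating and left for 72 h before CellTiter-Glo 2.0 addition.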

Row | GI50 ([3]; Homo sapiens) | GI50 [3] | SMILES | GI50 [1] | GI50 [2]
1 | < 500 nM | – | CCS(=O)(=O)Nc1ccc(Oc2cccc(CCOC3CCN(c4ncc(C(=O)N[C@H]5C(C)(C)[C@H](Oc6ccc(C#N)c(Cl)c6)C5(C)C)cn4)CC3)c2)c(-c2cn(C)c(=O)c3[nH]ccc23)c1 [Compound I-19] | < 500 nM | < 500 nM
2 | < 500 nM | – | CCS(=O)(=O)Nc1ccc(Oc2cccc(N3CC4(CN(CC5CCN(c6ncc(C(=O)N[C@H]7C(C)(C)[C@H](Oc8ccc(C#N)c(Cl)c8)C7(C)C)cn6)CC5)C4)C3)c2)c(-c2cn(C)c(=O)c3[nH]ccc23)c1 [Compound I-35, N-((1r, 3r)-3-(3-chloro-4-cyanophenoxy)-2,2,4,4-tetramethylcyclobutyl)-2-(4-((6-(3-(4-(ethylsulfonamido)-2-(6-methyl-7-oxo-6,7-dihydro-1H-pyrrolo[2,3-c]pyridin-4-yl)phenoxy)phenyl)-2,6-diazaspiro[3.3]heptan-2-yl)methyl)piperidin-1-yl)pyrimidine-5-carboxamide] | < 500 nM | 1500 to 3000 nM
3 | < 500 nM | – | CCS(=O)(=O)Nc1ccc(Oc2cccc(OC3CCC4(CC3)CCN(c3ncc(C(=O)N[C@H]5C(C)(C)[C@H](Oc6ccc(C#N)c(Cl)c6)C5(C)C)cn3)CC4)c2)c(-c2cn(C)c(=O)c3[nH]ccc23)c1 [Compound I-45] | < 500 nM | > 3000 nM
4 | < 500 nM | – | CCS(=O)(=O)Nc1ccc(Oc2cccc(OCCOC3CCN(c4ccc(C(=O)N[C@H]5C(C)(C)[C@H](Oc6ccc(C#N)c(Cl)c6)C5(C)C)cn4)CC3)c2)c(-c2cn(C)c(=O)c3[nH]ccc23)c1 [Compound I-70, N-((1r, 3r)-3-(3-chloro-4-cyanophenoxy)-2,2,4,4-tetramethylcyclobutyl)-6-(4-(2-(3-(4-(ethylsulfonamido)-2-(6-methyl-7-oxo-6,7-dihydro-1H-pyrrolo[2,3-c]pyridin-4-yl)phenoxy)phenoxy)ethoxy)piperidin-1-yl)nicotinamide] | < 500 nM | < 500 nM
5 | < 500 nM | – | CCS(=O)(=O)Nc1ccc(Oc2cccc(OCCOC3CCN(c4cnc(C(=O)N[C@H]5C(C)(C)[C@H](Oc6ccc(C#N)c(Cl)c6)C5(C)C)cn4)CC3)c2)c(-c2cn(C)c(=O)c3[nH]ccc23)c1 [Compound I-71, N-((1r, 3r)-3-(3-chloro-4-cyanophenoxy)-2,2,4,4-tetramethylcyclobutyl)-5-(4-(2-(3-(4-(ethylsulfonamido)-2-(6-methyl-7-oxo-6,7-dihydro-1H-pyrrolo[2,3-c]pyridin-4-yl)phenoxy)phenoxy)ethoxy)piperidin-1-yl)pyrazine-2-carboxamide] | < 500 nM | < 500 nM
6 | < 500 nM | – | Cn1cc(-c2cc(N)ccc2Oc2cccc(N3CC(N4CCN(c5ncc(C(=O)N[C@H]6C(C)(C)[C@H](Oc7ccc(C#N)c(Cl)c7)C6(C)C)cn5)CC4)C3)c2F)c2cc[nH]c2c1=O [Compound I-93] | < 500 nM | > 3000 nM
7 | < 500 nM | – | Cn1cc(-c2cc(N)ccc2Oc2cccc(OCCN3CCN(c4ncc(C(=O)N[C@H]5C(C)(C)[C@H](Oc6ccc(C#N)c(Cl)c6)C5(C)C)cn4)CC3)c2F)c2cc[nH]c2c1=O [Compound I-100] | < 500 nM | > 3000 nM
8 | < 500 nM | – | Cn1cc(-c2cc(N)ccc2Oc2cccc(OCCC3CCN(c4ncc(C(=O)N[C@H]5C(C)(C)[C@H](Oc6ccc(C#N)c(Cl)c6)C5(C)C)cn4)CC3)c2)c2cc[nH]c2c1=O [Compound I-101] | < 500 nM | > 3000 nM
9 | – | < 500 nM | CCS(=O)(=O)Nc1ccc(Oc2cccc(OC3CC(C4CCN(c5ncc(C(=O)N[C@H]6C(C)(C)[C@H](Oc7ccc(C#N)c(Cl)c7)C6(C)C)cn5)CC4)C3)c2)c(-c2cn(C)c(=O)c3[nH]ccc23)c1 (stereo partly drawn) [Compound I-104] | < 500 nM | 500 to 1500 nM
10 | < 500 nM | – | CCS(=O)(=O)N(C)c1ccc(Oc2cccc(N3CCN(C4CN(c5ncc(C(=O)N[C@H]6C(C)(C)[C@H](Oc7ccc(C#N)c(Cl)c7)C6(C)C)cn5)C4)CC3)c2)c(-c2cn(C)c(=O)c3[nH]ccc23)c1 [Compound I-118] | < 500 nM | > 3000 nM
11 | < 500 nM | – | CCS(=O)(=O)Nc1ccc(Oc2cccc(CCN3CC4CN(c5ncc(C(=O)N[C@H]6C(C)(C)[C@H](Oc7ccc(C#N)c(Cl)c7)C6(C)C)cn5)CC4C3)c2)c(-c2cn(C)c(=O)c3[nH]ccc23)c1 (stereo partly drawn) [Compound I-119] | < 500 nM | < 500 nM
12 | < 500 nM | – | CCS(=O)(=O)Nc1ccc(Oc2cccc(N3CC(N(C)C4CN(c5ncc(C(=O)N[C@H]6C(C)(C)[C@H](Oc7ccc(C#N)c(Cl)c7)C6(C)C)cn5)C4)C3)c2)c(-c2cn(C)c(=O)c3[nH]ccc23)c1 [Compound I-120] | < 500 nM | > 3000 nM
13 | – | < 500 nM | CCS(=O)(=O)Nc1ccc(Oc2cccc(N3CC(CC4CN(c5ncc(C(=O)N[C@H]6C(C)(C)[C@H](Oc7ccc(C#N)c(Cl)c7)C6(C)C)cn5)C4)C3)c2)c(-c2cn(C)c(=O)c3[nH]ccc23)c1 [Compound I-158] | < 500 nM | > 3000 nM
14 | 500 to 1500 nM | – | Cn1cc(-c2cc(C(C)(C)O)ccc2Oc2ccc(CC3CCN(c4ncc(C(=O)N[C@H]5C(C)(C)[C@H](Oc6ccc(C#N)c(Cl)c6)C5(C)C)cn4)CC3)cc2)c2cc[nH]c2c1=O [Compound I-201] | < 500 nM | 500 to 1500 nM
15 | 500 to 1500 nM | – | Cn1cc(-c2cc(C(C)(C)O)ccc2Oc2ccc(OCC3CCN(c4ncc(C(=O)N[C@H]5C(C)(C)[C@H](Oc6ccc(C#N)c(Cl)c6)C5(C)C)cn4)CC3)cc2)c2cc[nH]c2c1=O [Compound I-202] | < 500 nM | 500 to 1500 nM
16 | < 500 nM | – | Cn1cc(-c2cc(C(C)(C)O)ccc2Oc2ccc(OCCN3CCN(c4ncc(C(=O)N[C@H]5C(C)(C)[C@H](Oc6ccc(C#N)c(Cl)c6)C5(C)C)cn4)CC3)cc2)c2cc[nH]c2c1=O [Compound I-204] | < 500 nM | 500 to 1500 nM
17 | 500 to 1500 nM | – | CN(C1CCN(c2ncc(C(=O)N[C@H]3C(C)(C)[C@H](Oc4ccc(C#N)c(Cl)c4)C3(C)C)cn2)CC1)C1CN(c2ccc(Oc3ccc(C(C)(C)O)cc3-c3cn(C)c(=O)c4[nH]ccc34)cc2)C1 [Compound I-208] | < 500 nM | < 500 nM
18 | – | 1500 to 3000 nM | Cn1cc(-c2cc(C(C)(C)O)ccc2Oc2ccc(N3CC4(C3)CN(c3ncc(C(=O)N[C@H]5C(C)(C)[C@H](Oc6ccc(C#N)c(Cl)c6)C5(C)C)cn3)CCO4)cc2)c2cc[nH]c2c1=O [Compound I-212] | < 500 nM | 500 to 1500 nM
19 | < 500 nM | – | Cn1cc(-c2cc(C(C)(C)O)ccc2Oc2cccc(N3CC4(CN(c5ncc(C(=O)N[C@H]6C(C)(C)[C@H](Oc7ccc(C#N)c(Cl)c7)C6(C)C)cn5)CCO4)C3)c2F)c2cc[nH]c2c1=O [Compound I-216] | < 500 nM | < 500 nM
20 | – | < 500 nM | CCS(=O)(=O)c1ccc(Oc2cccc(OCCN3CCN(c4ncc5c(n4)CN([C@H]4C(C)(C)[C@H](Oc6ccc(C#N)c(Cl)c6)C4(C)C)C5=O)CC3)c2F)c(-c2cn(C)c(=O)c3[nH]ccc23)c1 [Compound I-217] | < 500 nM | < 500 nM
21 | < 500 nM | – | Cn1cc(-c2cc(C(C)(C)O)ccc2Oc2ccc(N3CC(OC4CCN(c5ncc(C(=O)N[C@H]6C(C)(C)[C@H](Oc7ccc(C#N)c(Cl)c7)C6(C)C)cn5)CC4)C3)cc2)c2cc[nH]c2c1=O [Compound I-219] | < 500 nM | < 500 nM
22 | > 3000 nM | – | CCS(=O)(=O)c1ccc(Oc2ccc(OCC3CCN(c4ncc5c(n4)CN([C@H]4C(C)(C)[C@H](Cc6ccc(C#N)c(Cl)c6)C4(C)C)C5=O)CC3)cc2)c(-c2cn(C)c(=O)c3[nH]ccc23)c1 [Compound I-220] | < 500 nM | < 500 nM
23 | > 3000 nM | – | CC(C)N(C1CCN(c2ncc(C(=O)N[C@H]3C(C)(C)[C@H](Oc4ccc(C#N)c(Cl)c4)C3(C)C)cn2)CC1)C1CN(c2cccc(Oc3ccc(C(C)(C)O)cc3-c3cn(C)c(=O)c4[nH]ccc34)c2F)C1 [Compound I-221] | < 500 nM | > 3000 nM
24 | 500 to 1500 nM | – | Cn1cc(-c2cc(C(C)(C)O)ccc2Oc2ccc(N3CC(CC4CCN(c5ncc(C(=O)N[C@H]6C(C)(C)[C@H](Oc7ccc(C#N)c(Cl)c7)C6(C)C)cn5)CC4)C3)cc2)c2cc[nH]c2c1=O [Compound I-232] | < 500 nM | > 3000 nM
25 | – | < 500 nM | CN(C1CN(c2ccc(Oc3ccc(C(C)(C)O)cc3-c3cn(C)c(=O)c4[nH]ccc34)cc2)C1)C1CN(c2ncc(C(=O)N[C@H]3C(C)(C)[C@H](Oc4ccc(C#N)c(Cl)c4)C3(C)C)cn2)C1 [Compound I-238] | < 500 nM | 500 to 1500 nM
26 | – | < 500 nM | CN(CC1CCN(c2ncc(C(=O)N[C@H]3C(C)(C)[C@H](Oc4ccc(C#N)c(Cl)c4)C3(C)C)cn2)CC1)C1(c2ccc(Oc3ccc(C(C)(C)O)cc3-c3cn(C)c(=O)c4[nH]ccc34)cc2)COC1 [Compound I-255] | < 500 nM | 500 to 1500 nM
27 | < 500 nM | – | Cn1cc(-c2cc(C(C)(C)O)ccc2Oc2ccc(CCCC3CC4(C3)CN(c3ncc(C(=O)N[C@H]5C(C)(C)[C@H](Oc6ccc(C#N)c(Cl)c6)C5(C)C)cn3)C4)cc2)c2cc[nH]c2c1=O [Compound I-268] | < 500 nM | 500 to 1500 nM
28 | < 500 nM | – | Cn1cc(-c2cc(C(C)(C)O)ccc2Oc2ccc(N3CC(CC4CN(c5ncc(C(=O)N[C@H]6C(C)(C)[C@H](Oc7ccc(C#N)c(Cl)c7)C6(C)C)cn5)C4)C3)cc2)c2cc[nH]c2c1=O [Compound I-280] | < 500 nM | 1500 to 3000 nM
